The source of these data is US12310938B2, “Compositions and methods for weight loss maintenance” (priority 2017, dated 2025).

“Also recorded” adds a separate entry of the source.

Experiment [1] in a line: Study 1: chronic ad libitum feeding trial, 28 days. It counts as in vivo. The note with it: VM/Dk mice, 10-20% by weight in standard chow; for bodyweight (weight loss and its maintenance): males and females, compared to SD or KD chow ad libitum. The method, then: FIGS. 1A-1H depict results of a chronic ad libitum feeding trial of male and female mice (Standard Diet Male (n=7)=SD-M; Ketogenic Diet Male (n=7)=KD-M; R/S 1,3 Butanediol Acetoacetate Diester (n=4)=KE-M; Standard Diet Female (n=7)=SD-F; Ketogenic Diet Female (n=6)=KD-F; R/S 1,3 Butanediol Acetoacetate Diester Female (n=4)=KE-F).
R,S 1,3-butanediol diacetoacetate (KE; 10-20% by weight mixed into standard chow) was administered to VM/Dk mice at for both males and females for 28 days. Standard rodent chow (SD) and ketogenic diet chow (KD) were administered to other VM/Dk mice ad libitum for comparison.

Experiment [2] in a line: Study 3: acute oral gavage trial, 7 days. It counts as in vivo, Sprague Dawley Rats. As to conditions: rats. The method, then: FIGS. 2A-2B depict results of an acute gavage trial in rats.
R,S 1,3 butanediol diacetoacetate (KE) was administered to Sprague Dawley Rats by oral gavage (at 5 mL/kg, which may translate to about 300-700 mg/kg for a human). Water, BHB-salt, or BHB-salt+MCT mixture was administered to other Sprague Dawley Rats for comparison. Animals were provided ad libitum access to standard rodent chow.

Experiment [3] in a line: Study 4: chronic feeding trial, 15 weeks. The class given is in vivo, Sprague Dawley Rats. The note with it: rats; for bodyweight (prevention of weight gain, maintaining a lower weight): in food, 25 g/kg/d, 15 weeks, compared to standard diet, BHB-S, S-MCT. An excerpt:
FIG. 3 depicts results of a chronic feeding trial in rats. SD: standard rodent chow (fed ad libitum); LKE: low-dose R,S 1,3-butanediol diacetoacetate (approx. 5 g/kg/day in food); HKE: high-dose R,S 1,3-butanediol diacetoacetate (approx. 25 g/kg/day in food); BHB-S: beta-hydroxybutyrate salt (approx. 25 g/kg/day in food); S-MCT: 1:1 beta-hydroxybutyrate salt: medium chain triglyceride oil (approx. 25 g/kg/day).

Experiment [4] is described as follows: Study 5: weight loss to 20% with ketogenic agents vs caloric restriction, then return to ad libitum standard diet (weight loss maintenance). The class given is in vivo. As to conditions: C57BL/6J; for food efficiency during weight loss maintenance (bodyweight regain proportional to calories consumed, FIG. 6): after cessation of agent, ad libitum SD, compared to caloric restriction and butanediol; for weight loss as ratio to kcal of ketogenic agent per total daily intake (FIGS. 4A-4B): compared to butanediol, BHB+MCT, BHB; for weight loss as a ratio to caloric intake/day (FIG. 5B): compared to BHB, BHB+MCT and CR groups. From the text: FIGS. 4A-4B depict results of weight loss induced by various ketogenic agents against regular SD caloric restriction, illustrating the effectiveness of various ketogenic agents for inducing weight loss. Treatments: Beta-Hydroxybutyrate (BHB); Beta-Hydroxybutyrate+Medium Chain Triglycerides (BHB+MCT); Butanediol (BD); R,S 1,3-Butanediol Acetoacetate Diester (KE).
FIGS. 5A-5B depict treatment timeline of weight loss study utilizing various ketogenic agents against SD caloric restriction, as well as evaluation of weight loss potency of each ketogenic agent. Treatments: Standard Diet ad-Libitum (SD-AL); Standard Diet Caloric Restriction (CR); Beta-Hydroxybutyrate (BHB); Beta-Hydroxybutyrate+Medium Chain Triglycerides (BHB+MCT); Butanediol (BD); R,S 1,3-Butanediol Acetoacetate Diester (KE). […] These reductions in bodyweight were at lower percentages of the ketogenic agent within the food. Additionally, KE animals reach target weight loss at much LOWER % of ketogenic agent integrated into the diet.
FIG. 6 depicts food efficiency during weight loss maintenance by calculating bodyweight regain proportional to calories consumed. Treatments: Standard Diet ad-Libitum (SD-AL); Standard Diet Caloric Restriction (CR); Beta-Hydroxybutyrate (BHB); Beta-Hydroxybutyrate+Medium Chain Triglycerides (BHB+MCT); Butanediol (BD); R,S 1,3-Butanediol Acetoacetate Diester (KE).
C57BL/6J animals were obtained. Prior to experimental initiation, animals were randomly assigned to one (1) of five (5) groups: Caloric Restriction with standard diet (SD), Beta-hydroxybutyrate with SD (BHB), BHB+Medium Chain Triglycerides with SD (BHB+MCT), 1,3-Butanediol with SD (BD), and R,S 1,3 Butanediol Acetoacetate Diester with SD (KE). All animals initiated weight loss by either reducing the amount of calories consumed (CR group) or adding various % of ketogenic agents to induce weight loss. There was no difference in bodyweight across groups at baseline. All animals underwent weight loss until 20% weight loss was achieved. Upon reaching 20% weight loss, animals were switched back onto ad-libitum SD.
Calories intake, bodyweight, and kcal of ketogenic agent in diet were recorded daily. In order to calculate the effectiveness of each agent to induce weight loss, weight loss as both grams and % weight loss, was compared as a ratio to the amount of kcal from each ketogenic agent compared to total kcals consumed a day.

Where [5] appears, read: agent in standard diet until 20% weight loss.

Consider `CC(=O)CC(=O)OCCC(C)OC(=O)CC(C)=O` (stereo not shown) [KE, R,S 1,3-butanediol diacetoacetate], for which, in experiment [1] (compared to SD or KD), the white adipose tissue result is given as “induce reductions in white adipose tissue”. In addition, the “bodyweight (weight loss and its maintenance)” value in experiment [1] is “induced and maintained long-term weight loss”; in experiment [1] (listed as ketone diester), “lost significantly more bodyweight”. For the same compound, the “bodyweight (prevention of weight gain, maintaining a lower weight)” value was “more effective than BHB-S, S-MCT, or Control at preventing weight gain and maintaining a lower weight; also recorded: significantly lower bodyweight” in experiment [2] (gavage 5 g/kg once daily (5 mL/kg), ad libitum standard chow, compared to water, BHB-S, S-MCT, p<0.01); “more effective than BHB-S or S-MCT at preventing weight gain and maintaining a lower weight” in experiment [3]; “significantly lower bodyweight” in experiment [3] (listed as R,S 1,3 butanediol diacetoacetate). In addition, in experiment [2] (gavage once daily, ad libitum access to standard rodent chow), the “calorie intake (self-restriction)” value is “self-restricted calories”. For the same compound, the “Approximate caloric intake compared to controls following adaptation to diet (weeks 13-15)” value in experiment [3] (approx. 25 g/kg/day in food) is listed as about −7% kcal; in experiment [3] (low dose, approx. 5 g/kg/day in food) it was “~+10% kcal”. In addition, the “food efficiency during weight loss maintenance (bodyweight regain proportional to calories consumed, FIG. 6)” value is “more effective at inducing inefficiencies in kcal consumed; also recorded: had lingering effects on food efficiency and weight loss maintenance” in experiment [4]; “help contribute to maintenance of weight loss after cessation of weight loss intervention by reducing food efficiency” in experiment [4] (listed as R,S 1,3-butanediol diacetoacetate). In addition, the “speed of bodyweight reduction and % of agent in the diet needed (FIG. 5A)” value in experiment [4] (setting [5]) is listed as “induced a quicker reduction in bodyweight; also recorded: induces more rapid weight loss”. The “weight loss as ratio to kcal of ketogenic agent per total daily intake (FIGS. 4A-4B)” value in experiment [4] (setting [5]) was “superior per kcal used at inducing weight loss”; in experiment [4] (agent in standard diet until 20% weight loss, listed as R,S 1,3 Butanediol Acetoacetate diester), “superior weight loss agent per total average daily intake”. Also, in experiment [4], the “weight loss as a ratio to caloric intake/day (FIG. 5B)” value is on record as “significantly more potent at inducing weight loss when divided by total caloric intake”.
Turning to “beta-hydroxybutyrate salt [BHB-S, reference compound]”, the “Approximate caloric intake compared to controls following adaptation to diet (weeks 13-15)” value in experiment [3] (approx. 25 g/kg/day in food) is given as about −25% kcal. Moreover, in experiment [4], the “food efficiency during weight loss maintenance (bodyweight regain proportional to calories consumed, FIG. 6)” value was “help contribute to maintenance of weight loss after cessation of weight loss intervention by reducing food efficiency” and the “weight loss as a ratio to caloric intake/day (FIG. 5B)” value is “could be explained by caloric restriction alone”. Moreover, the “food efficiency during weight loss maintenance (bodyweight regain proportional to calories consumed, FIG. 6)” value in experiment [4] (listed as BHB) is “more effective at inducing inefficiencies in kcal consumed; also recorded: had lingering effects on food efficiency and weight loss maintenance; also recorded: helped maintain weight loss post cessation of agent administration”.
